Test results published in patent US7332476B2, “Pyridyl substituted ketolide antibiotics” (Novartis AG, priority 2003, dated 2008).
Converted amounts (≈) assume the structure as drawn.

Legend:
[1] = system: Streptococcus pneumoniae Stpn_280-962; experiment: MIC, broth microdilution (NCCLS); format: cell-based
Outline: (§1)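 NCCLS broth microdilution with 2-fold serial drug dilutions (methanol stocks diluted in water); inoculum 3×10^5–7×10^5 CFU/ml in CAMHB, with 2-5% lysed horse blood for S. pneumoniae. Incubation 18-24 h at 35° C., ambient air, except S. pneumoniae (5-10% CO2). MIC is lowest concentration preventing visible growth.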

[2] = system: Streptococcus pyogenes Stpy_8668; experiment: MIC, broth microdilution (NCCLS); format: cell-based
Outline: as §1

[3] = system: Streptococcus pneumoniae Stpn_49619; experiment: MIC, broth microdilution (NCCLS); format: cell-based
Outline: as §1

[4] = system: Streptococcus pneumoniae Stpn_Erm S 4297; experiment: MIC, broth microdilution (NCCLS); format: cell-based
Outline: as §1

[5] = system: Enterococcus faecalis Enfa_29212; experiment: MIC, broth microdilution (NCCLS); format: cell-based
Outline: as §1

[6] = system: Streptococcus pneumoniae Stpn_Mef S 3427; experiment: MIC, broth microdilution (NCCLS); format: cell-based
Outline: as §1

[7] = system: Staphylococcus epidermidis Step_f50654; experiment: MIC, broth microdilution (NCCLS); format: cell-based
Outline: as §1

[8] = system: Staphylococcus epidermidis Step_14990; experiment: MIC, broth microdilution (NCCLS); format: cell-based
Outline: as §1

[9] = system: Haemophilus influenzae Hain_49247; experiment: MIC, broth microdilution (NCCLS); format: cell-based; settings: unit assumed
[10] = system: Streptococcus pneumoniae Stpn_Mef 5654; experiment: MIC, broth microdilution (NCCLS); format: cell-based; settings: in µg/mL (unit assumed)
Outline: as §1

E. coli Esco_25922 = experiment: MIC, broth microdilution (NCCLS); format: cell-based; settings: Table 5, Strain ID M (Table 4): E. coli Esco_25922; unit assumed
Description: Strains. The bacterial isolates listed in Table 4 were cultivated from −70° C. frozen stocks by two consecutive overnight passages (P1, P2) at 35° C. on 5% blood agar (Remel, Lenexa, Kans.). Chocolate agar (Remel) is used for Haemophilus influenzae. H. influenzae and Streptococcus pneumoniae are incubated in 5-10% CO2
Drug Stock Preparation. To determine the amount of solvent to be used to give the desired final concentration, the formula “weight obtained in mg/final concentration in mg/ml” will be used. It will give the amount of solvent in ml needed to be added to give the desired concentration. For example, if 2.5 mg/ml is the desired concentration and the weight of compound is 13.7 mg, then the amount of solvent to be added is […]. Methanol is used as the solvent to dissolve the test compounds. Further dilution of stock is done in sterile, deionized water. Drug stocks are kept frozen at −70° C., protected from light.
Susceptibility Testing. MICs are determined by the broth microdilution method in accordance with the NCCLS guidelines. In brief, organism suspensions are adjusted to a 0.5 McFarland standard to yield a final inoculum between 3×10^5 and 7×10^5 CFU/ml. Drug dilutions and inocula are made in sterile, cation adjusted Mueller-Hinton Broth (CAMHB) (Remel) for all but S. pneumoniae [CAMHB with 2-5% lysed horse blood (Remel)] and H. influenzae [Haemophilus Test Medium (Remel)]. An inoculum volume of 100 μl is added to wells containing 100 μl of broth with 2-fold serial dilutions of drug. All inoculated microdilution trays are incubated in ambient air at 35° C. for 18-24 hours, except for S. pneumoniae, and H. influenzae (both at 5-10% CO2).
Following appropriate incubation, the MIC is determined and the MIC is defined as the lowest concentration of the drug that prevented visible growth.

[11] = system: Streptococcus pneumoniae Stpn_297-749; experiment: MIC, broth microdilution (NCCLS); format: cell-based
Outline: as §1

[12] = system: S. pneumoniae Stpn_Erm 6849; experiment: MIC, broth microdilution (NCCLS); format: cell-based, Streptococcus pneumoniae; settings: Table 5, Strain ID H (Table 4): S. pneumoniae Stpn_Erm 6849; unit assumed
Outline: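 S. pneumoniae MIC by NCCLS broth microdilution in cation-adjusted Mueller-Hinton broth with 2-5% lysed horse blood, inoculum 3×10^5–7×10^5 CFU/ml, 2-fold drug dilutions. Incubated 18-24 hours at 35° C. in 5-10% CO2; MIC is lowest concentration preventing visible growth.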

[13] = system: Staphylococcus aureus Stau_29213; experiment: MIC, broth microdilution (NCCLS); format: cell-based; settings: Table 10, Strain ID A (Table 8): Staphylococcus aureus Stau_29213
Outline: as §1

[14] = In vivo pharmacokinetic study in rats, whole lung (IV and PO); settings: male, Sprague-Dawley, 5 mg/kg, rat
Description: (§2) Animal Models. A total of 54 male Sprague-Dawley rats, weighing 200 grams in average, were evaluated for pharmacokinetic studies of representative pyridyl substituted ketolides. Rats were under overnight food restriction and received water ad libitum. Rats were acclimated for approximately 5 days before antibiotic administration.
(§3) Antibiotic Administration. Rats were given bolus administration through (IV) and oral (PO) routes. Representative pyridyl substituted ketolides and telithromycin, for comparison, were diluted in 0.85% saline to a concentration of 15.0 mg/ml, and the resulting pH was adjusted using 1N acetic acid until the compound was in solution. Approximately 200 microliters of the compound solution was administered to the rats. The target dose for IV and PO administration was 5 mg/kg and 15 mg/kg, respectively.
(§4) Sample Collection. Plasma and whole lung samples were collected from the rats. Plasma samples were obtained from blood samples by centrifugation at 3000 RPM for 10 min. Heparin was added in the plasma as an anticoagulant. Whole lung samples were homogenized in deionized water. Samples were stored at −80° C. A total of 9 time points were collected in triplicate at 0.083, 0.25, 0.5, 1, 2, 4, 6, 8, and 24 hrs. Ketolide concentrations in plasma and lung were determined by well-established non-GLP LC-MS-MS methods. PK parameters were estimated from the raw bioanalytical data using WinNolin software (Version 4.0, Pharsight Corporation, CA). […] All representative compounds were compared to telithromycin.

[15] = In vivo pharmacokinetic study in rats, plasma (IV and PO); parameters: species or system Sprague-Dawley rats; settings: rat
Description: as §2, §3, §4

[16] = system: Staphylococcus aureus Stau_33591; experiment: MIC, broth microdilution (NCCLS); format: cell-based; settings: Table 10, Strain ID B (Table 8): Staphylococcus aureus Stau_33591; unit assumed
Outline: (§5)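 NCCLS broth microdilution, inoculum 3×10^5–7×10^5 CFU/ml, 2-fold drug dilutions; CAMHB for staphylococci and enterococci, Haemophilus Test Medium for H. influenzae. Incubated 35 °C for 18-24 hours, ambient air or 5-10% CO2 for H. influenzae; MIC is lowest concentration preventing visible growth.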

[17] = system: Haemophilus influenzae Hain_2762; experiment: MIC, broth microdilution (NCCLS); format: cell-based; settings: Table 10, Strain ID L (Table 8): Haemophilus influenzae Hain_2762; in µg/mL (unit assumed)
Outline: as §5

[18] = system: Haemophilus influenzae Hain_953460299-3; experiment: MIC, broth microdilution (NCCLS); format: cell-based; settings: Table 10, Strain ID K (Table 8): Haemophilus influenzae Hain_953460299-3; in µg/mL (unit assumed)
Outline: as §5

[19] = system: Haemophilus influenzae Hain_960730503-3; experiment: MIC, broth microdilution (NCCLS); format: cell-based; settings: Table 10, Strain ID I (Table 8): Haemophilus influenzae Hain_960730503-3; in µg/mL (unit assumed)
Outline: as §5

[20] = system: Enterococcus faecalis Enfa_bc 11148-2; experiment: MIC, broth microdilution (NCCLS); format: cell-based; settings: Table 10, Strain ID F (Table 8): Enterococcus faecalis Enfa_bc 11148-2; in µg/mL (unit assumed)
Outline: as §5

[21] = system: Haemophilus influenzae Hain_960820544-3; experiment: MIC, broth microdilution (NCCLS); format: cell-based; settings: Table 10, Strain ID J (Table 8): Haemophilus influenzae Hain_960820544-3; in µg/mL (unit assumed)
Outline: as §5

[22] = Table 5, Strain ID G (Table 4): S. pneumoniae Stpn_280-962 Pen S
[23] = Table 5, Strain ID D (Table 4): S. pyogenes Stpy_8668
[24] = Table 5, Strain ID E (Table 4): S. pneumoniae Stpn_49619
[25] = Table 5, Strain ID I (Table 4): S. pneumoniae Stpn_Erm S 4297
[26] = Table 5, Strain ID C (Table 4): E. faecalis Enfa_29212, in µg/mL (unit assumed)
[27] = Table 5, Strain ID K (Table 4): S. pneumoniae Stpn_Mef S 3427, in µg/mL (unit assumed)
[28] = Table 5, Strain ID B (Table 4): S. epidermidis Step_f50654 Pen S, in µg/mL (unit assumed)
[29] = Table 5, Strain ID A (Table 4): S. epidermidis Step_14990, in µg/mL (unit assumed)
[30] = Table 5, Strain ID L (Table 4): H. influenzae Hain_49247
[31] = Table 5, Strain ID J (Table 4): S. pneumoniae Stpn_Mef 5654
[32] = Table 5, Strain ID F (Table 4): S. pneumoniae Stpn_297-749 Pen R

## CC[C@H]1OC(=O)[C@H](C)C(=O)[C@H](C)[C@@H](OC2O[C@H](C)C[C@H](N(C)C)[C@H]2O)[C@@](C)(OC)C[C@@H](C)C(=O)[C@H](C)[C@H]2N(CCCCn3cnc(-c4cccnc4)c3)C(=O)O[C@]12CC (stereo partly shown) [Compound 7280]
[1]; [22]
  MIC: =0.05
[2]; [23]
  MIC: =0.05
[3]; [24]
  MIC: =0.05
[4]; [25]
  MIC: =0.05
[5]; [26]
  MIC: 0.1
[6]; [27]
  MIC: 0.1
[7]; [28]
  MIC: 0.2
[8]; [29]
  MIC: 0.2
[9]; [30]
  MIC: 6.25 µg/mL (≈ 7.57 µM)
[10]; [31]
  MIC: 0.4
E. coli Esco_25922
  MIC: 25 µg/mL (≈ 30.3 µM)
[11]; [32]
  MIC: =0.05
[12]
  MIC: 0.4 µg/mL (≈ 0.484 µM)

## CC[C@H]1OC(=O)[C@H](C)C(=O)[C@H](C)[C@@H](OC2O[C@H](C)C[C@H](N(C)C)[C@H]2O)[C@@](C)(OC)C[C@@H](C)C(=O)[C@H](C)[C@H]2N(CCCCn3cnc(-c4ccccc4)c3)C(=O)O[C@]12CC (stereo partly shown) [Compound 7281]
[1]; [22]
  MIC: =0.05
[2]; [23]
  MIC: =0.05
[3]; [24]
  MIC: =0.05
[4]; [25]
  MIC: =0.05
[5]; [26]
  MIC: 0.1
[6]; Table 5, Strain ID K (Table 4): S. pneumoniae Stpn_Mef S 3427
  MIC: =0.05
[7]; [28]
  MIC: 0.1
[8]; [29]
  MIC: 0.2
[9]; [30]
  MIC: 3.13 µg/mL (≈ 3.79 µM)
[10]; [31]
  MIC: 0.4
E. coli Esco_25922
  MIC: 25 µg/mL (≈ 30.3 µM)
[11]; [32]
  MIC: =0.05
[12]
  MIC: 0.2 µg/mL (≈ 0.242 µM)

## CC[C@H]1OC(=O)[C@H](C)C(=O)[C@H](C)[C@@H](OC2O[C@H](C)C[C@H](N(C)C)[C@H]2O)[C@@](C)(OC)C[C@@H](C)C(=O)[C@H](C)[C@H]2N(CCCCn3cnc4ccccc43)C(=O)O[C@]12CC (stereo partly shown) [Compound 7282]
[1]; [22]
  MIC: =0.05
[2]; [23]
  MIC: =0.05
[3]; [24]
  MIC: =0.05
[4]; Table 5, Strain ID I (Table 4): S. pneumoniae Stpn_Erm S 4297, unit assumed
  MIC: 0.2 µg/mL (≈ 0.25 µM)
[5]; [26]
  MIC: 0.1
[6]; [27]
  MIC: 0.1
[7]; [28]
  MIC: 0.2
[8]; [29]
  MIC: 0.4
[9]; [30]
  MIC: 3.13 µg/mL (≈ 3.92 µM)
[10]; [31]
  MIC: 0.4
E. coli Esco_25922
  MIC: 12.5 µg/mL (≈ 15.6 µM)
[11]; [32]
  MIC: =0.05
[12]
  MIC: 0.78 µg/mL (≈ 0.976 µM)

## C=C[C@]12OC(=O)N(CCCCn3cnc(-c4ccc(Cl)nc4)c3)[C@@H]1[C@@H](C)C(=O)[C@H](C)C[C@](C)(OC)[C@H](OC1O[C@H](C)C[C@H](N(C)C)[C@H]1O)[C@@H](C)C(=O)[C@@H](C)C(=O)O[C@@H]2CC (stereo partly shown) [XX]
[1]; Table 10, Strain ID O (Table 8): Streptococcus pneumoniae Stpn_280-962
  MIC: =0.05
[2]; Table 10, Strain ID G (Table 8): Streptococcus pyogenes Stpy_8668
  MIC: =0.05
[3]; Table 10, Strain ID M (Table 8): Streptococcus pneumoniae Stpn_49619
  MIC: =0.05
[4]; Table 10, Strain ID R (Table 8): Streptococcus pneumoniae Stpn_Erm S 4297
  MIC: =0.05
[5]; Table 10, Strain ID E (Table 8): Enterococcus faecalis Enfa_29212
  MIC: =0.05
[6]; Table 10, Strain ID Q (Table 8): Streptococcus pneumoniae Stpn_Mef S 3427
  MIC: =0.05
[13]
  MIC: =0.05
[7]; Table 10, Strain ID D (Table 8): Staphylococcus epidermidis Step_f50654
  MIC: =0.05
[8]; Table 10, Strain ID C (Table 8): Staphylococcus epidermidis Step_14990
  MIC: =0.05
[9]; Table 10, Strain ID H (Table 8): Haemophilus influenzae Hain_49247
  MIC: 3.13 µg/mL (≈ 3.65 µM)
[10]; Table 10, Strain ID P (Table 8): Streptococcus pneumoniae Stpn_Mef 5654
  MIC: 0.2
[14]; IV, whole lung, read-out: t1/2, IV Lung (converted)
  half-life: 1.4 h
[14]; lung/plasma, iv, read-out: L/P ratio, IV
  Kp: 94
[15]; male, Sprague-Dawley, 5 mg/kg, IV, plasma, read-out: t1/2, IV Plasma (converted)
  half-life: 1.3 h
[15]; male, Sprague-Dawley, plasma, IV, dose IV = 5 mg/kg (Compound XIV: IV = 15)
  AUC: 2300 ng·h/mL
[15]; male, Sprague-Dawley, plasma, intravenous
  clearance: 107 mL/min/kg
[15]; male, Sprague-Dawley, plasma, intravenous, read-out: Vss
  Vd: 12 L/kg
[15]; PO = 15 mg/kg
  F, PO: 26%
[11]; Table 10, Strain ID N (Table 8): Streptococcus pneumoniae Stpn_297-749
  MIC: =0.05
[16]
  MIC: > 50 µg/mL
[17]
  MIC: 0.78
[18]
  MIC: 6.25
[19]
  MIC: 3.13
[20]
  MIC: 0.1
[21]
  MIC: 3.13
